In ChEMBL document CHEMBL1909046, “DrugMatrix in vitro pharmacology data”:

Key:
[1] = DRUGMATRIX: Purinergic P2X radioligand binding (ligand: [3H] alpha, beta-Methylene-ATP); type: cell membranes, Oryctolagus cuniculus, New Zealand albino, Urinary bladder, Membrane; settings: Not Active = under 50% inhibition at 10 µM
[2] = molecular target: Mitogen-activated protein kinase 1 (Homo sapiens, UniProt P28482); assay: DRUGMATRIX: Protein Serine/Threonine Kinase, ERK2 enzyme inhibition (substrate: Myelin Basic Protein); set-up: species or system Escherichia coli; settings: Not Active = under 50% inhibition at 10 µM
[3] = DRUGMATRIX: Glutamate, AMPA radioligand binding (ligand: [3H] AMPA); type: cell membranes, Rattus norvegicus, Wistar, Cerebral cortex, Membrane; settings: Not Active = under 50% inhibition at 10 µM
[4] = molecular target: T1, Alpha-1D adrenergic receptor (Homo sapiens, UniProt P25100); type: cell membranes, HEK293, Membrane; settings: hek293; note: in other assays of this panel Not Active means under 50% inhibition at 10 µM
T1 sequence (P25100 whole entry): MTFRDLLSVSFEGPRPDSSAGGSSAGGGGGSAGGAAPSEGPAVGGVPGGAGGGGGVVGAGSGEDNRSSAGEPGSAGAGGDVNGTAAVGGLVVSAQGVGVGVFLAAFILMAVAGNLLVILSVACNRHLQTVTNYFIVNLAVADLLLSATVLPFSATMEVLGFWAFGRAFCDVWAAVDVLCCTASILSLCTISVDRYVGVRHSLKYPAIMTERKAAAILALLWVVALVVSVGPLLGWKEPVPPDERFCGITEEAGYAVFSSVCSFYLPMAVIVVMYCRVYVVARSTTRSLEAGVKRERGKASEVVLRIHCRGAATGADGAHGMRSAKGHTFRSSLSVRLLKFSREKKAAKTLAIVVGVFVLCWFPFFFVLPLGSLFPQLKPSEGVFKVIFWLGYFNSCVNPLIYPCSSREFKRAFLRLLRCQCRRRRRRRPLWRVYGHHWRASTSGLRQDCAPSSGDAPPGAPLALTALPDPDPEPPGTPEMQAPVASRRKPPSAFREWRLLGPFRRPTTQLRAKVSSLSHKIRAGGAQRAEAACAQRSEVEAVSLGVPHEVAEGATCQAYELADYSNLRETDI

[5] = DRUGMATRIX: Potassium Channel [KATP] radioligand binding (ligand: [3H] Glyburide); type: cell membranes, Membrane; settings: hit-t15; Not Active = under 50% inhibition at 10 µM
[6] = molecular target: Kappa-type opioid receptor (Homo sapiens, UniProt P41145); assay: DRUGMATRIX: Opiate kappa (OP2, KOP) radioligand binding (ligand: [3H] Diprenorphine); type: cell membranes, HEK293, Membrane; settings: hek293; Not Active = under 50% inhibition at 10 µM
Chain of Kappa-type opioid receptor (P41145 whole entry): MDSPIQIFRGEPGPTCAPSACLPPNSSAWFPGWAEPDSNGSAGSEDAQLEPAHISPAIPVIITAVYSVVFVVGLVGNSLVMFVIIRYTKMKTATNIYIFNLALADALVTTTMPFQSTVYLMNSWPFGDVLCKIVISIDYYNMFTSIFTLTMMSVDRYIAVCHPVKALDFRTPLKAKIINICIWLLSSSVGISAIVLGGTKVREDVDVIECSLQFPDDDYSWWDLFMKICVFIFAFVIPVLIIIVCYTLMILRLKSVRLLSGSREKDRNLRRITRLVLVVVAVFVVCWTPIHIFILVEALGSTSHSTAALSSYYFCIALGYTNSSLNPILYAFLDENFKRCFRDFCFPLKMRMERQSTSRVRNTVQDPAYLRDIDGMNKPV

Chain of Mitogen-activated protein kinase 1 (P28482 whole entry): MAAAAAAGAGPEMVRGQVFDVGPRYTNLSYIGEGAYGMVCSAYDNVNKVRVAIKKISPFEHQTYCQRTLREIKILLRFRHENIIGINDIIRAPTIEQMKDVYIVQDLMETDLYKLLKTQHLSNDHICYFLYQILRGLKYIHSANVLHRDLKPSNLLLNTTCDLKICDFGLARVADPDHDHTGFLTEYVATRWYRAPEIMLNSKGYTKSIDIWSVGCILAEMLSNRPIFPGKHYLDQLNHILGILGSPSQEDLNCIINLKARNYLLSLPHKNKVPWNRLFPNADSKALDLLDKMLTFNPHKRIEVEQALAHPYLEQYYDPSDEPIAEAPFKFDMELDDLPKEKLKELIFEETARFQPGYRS

Compound: C=C(Cl)Cl [1,1-DICHLOROETHENE]
- IC50 [1]: Not Active
- Ki [1]: Not Active
- IC50 [2]: Not Active
- IC50 [3]: Not Active
- Ki [3]: Not Active
- IC50 [4]: Not Active
- IC50 [5]: Not Active
- Ki [5]: Not Active

Compound: C=CCO [ALLYL ALCOHOL]
- IC50 [1]: Not Active
- Ki [1]: Not Active
- IC50 [2]: Not Active
- IC50 [3]: Not Active
- Ki [3]: Not Active
- IC50 [4]: Not Active
- IC50 [5]: Not Active
- Ki [5]: Not Active

Compound: CHROMIC CHLORIDE
- IC50 [1]: Not Active
- Ki [1]: Not Active
- IC50 [2]: Not Active
- Ki [2]: Not Active
- IC50 [3]: Not Active
- Ki [3]: Not Active
- IC50 [4]: Not Active
- Ki [4]: Not Active
- IC50 [5]: Not Active
- Ki [5]: Not Active

Compound: CCN1C[C@]2(COC)[C@H](O)C[C@H](OC)[C@@]34[C@@H]5C[C@@]6(O)[C@H](OC(=O)c7ccccc7)[C@@H]5[C@@](OC(C)=O)([C@@H]([C@H](OC)[C@H]23)[C@@H]14)[C@@H](O)[C@@H]6OC [ACONITINE]
- IC50 [1]: Not Active
- Ki [1]: Not Active
- IC50 [2]: Not Active
- IC50 [3]: Not Active
- Ki [3]: Not Active
- IC50 [4]: Not Active
- IC50 [5]: Not Active
- Ki [5]: Not Active

Compound: C[C@@H]1[C@H](O)[C@@H](C)/C=C/C=C/C=C/C=C/C=C/C=C/C=C/[C@H](O[C@@H]2O[C@H](C)[C@@H](O)[C@H](N)[C@@H]2O)C[C@@H]2O[C@](O)(C[C@@H](O)C[C@@H](O)[C@H](O)CC[C@@H](O)C[C@@H](O)CC(=O)O[C@H]1C)C[C@H](O)[C@H]2C(=O)O [AMPHOTERICIN B]
- IC50 [1]: Not Active
- Ki [1]: Not Active
- IC50 [3]: Not Active
- Ki [3]: Not Active
- IC50 [6]: Not Active
- IC50 [4]: Not Active
- IC50 [5]: Not Active
- Ki [5]: Not Active

Compound: COc1cc([C@@H]2c3cc4c(cc3[C@H](O)[C@H]3COC(=O)[C@H]23)OCO4)cc(OC)c1OC [PODOFILOX]
- IC50 [1]: Not Active
- Ki [1]: Not Active
- IC50 [2]: Not Active
- IC50 [3]: Not Active
- Ki [3]: Not Active
- IC50 [4]: Not Active
- IC50 [5]: Not Active
- Ki [5]: Not Active

Compound: POVIDONE
- IC50 [1]: Not Active
- Ki [1]: Not Active
- IC50 [2]: Not Active
- Ki [2]: Not Active
- IC50 [3]: Not Active
- Ki [3]: Not Active
- IC50 [4]: Not Active
- Ki [4]: Not Active
- IC50 [5]: Not Active
- Ki [5]: Not Active

Compound: CN(Cc1cc(Br)cc(Br)c1N)C1CCCCC1 [BROMHEXINE]
- IC50 [1]: Not Active
- Ki [1]: Not Active
- IC50 [3]: Not Active
- Ki [3]: Not Active
- IC50 [6]: Not Active
- IC50 [4]: Not Active
- IC50 [5]: Not Active
- Ki [5]: Not Active

Compound: Nc1ccc(Cc2ccc(N)cc2)cc1
- IC50 [1]: Not Active
- Ki [1]: Not Active
- IC50 [2]: Not Active
- IC50 [3]: Not Active
- Ki [3]: Not Active
- IC50 [4]: Not Active
- IC50 [5]: Not Active
- Ki [5]: Not Active

Compound: C=CCN1CC[C@]23c4c5ccc(O)c4O[C@H]2/C(=N/N=C2\CC[C@@]4(O)[C@H]6Cc7ccc(O)c8c7[C@@]4(CCN6CC=C)[C@H]2O8)CC[C@@]3(O)[C@H]1C5 [NALOXONAZINE]
- IC50 [1]: Not Active
- Ki [1]: Not Active
- IC50 [2]: Not Active
- IC50 [3]: Not Active
- Ki [3]: Not Active
- IC50 [4]: Not Active
- IC50 [5]: Not Active
- Ki [5]: Not Active

Compound: ClC1=C(Cl)[C@]2(Cl)[C@@H]3[C@@H]4C[C@@H]([C@H]5O[C@@H]45)[C@@H]3[C@@]1(Cl)C2(Cl)Cl [DIELDRIN]
- IC50 [1]: Not Active
- Ki [1]: Not Active
- IC50 [2]: Not Active
- IC50 [3]: Not Active
- Ki [3]: Not Active
- IC50 [4]: Not Active
- IC50 [5]: Not Active
- Ki [5]: Not Active

Compound: COPPER(II) OXIDE
- IC50 [1]: Not Active
- Ki [1]: Not Active
- IC50 [2]: Not Active
- Ki [2]: Not Active
- IC50 [3]: Not Active
- Ki [3]: Not Active
- IC50 [4]: Not Active
- Ki [4]: Not Active
- IC50 [5]: Not Active
- Ki [5]: Not Active

Compound: O=C(O)CNCP(=O)(O)O [GLYPHOSATE]
- IC50 [1]: Not Active
- Ki [1]: Not Active
- IC50 [2]: Not Active
- IC50 [3]: Not Active
- Ki [3]: Not Active
- IC50 [4]: Not Active
- IC50 [5]: Not Active
- Ki [5]: Not Active

Compound: CARBOXYMETHYLCELLULOSE
- IC50 [1]: Not Active
- Ki [1]: Not Active
- IC50 ([2]; read-out: IC50): 0.216 µM
- IC50 [3]: Not Active
- Ki [3]: Not Active
- IC50 [4]: Not Active
- Ki [4]: Not Active
- IC50 [5]: Not Active
- Ki [5]: Not Active

Compound: NC(N)=Nc1nc(CSCCC(N)=NS(N)(=O)=O)cs1 [FAMOTIDINE]
- IC50 [1]: Not Active
- Ki [1]: Not Active
- IC50 [2]: Not Active
- IC50 [3]: Not Active
- Ki [3]: Not Active
- IC50 [6]: Not Active
- IC50 [4]: Not Active
